Measurements published in patent EP1505089B1, “Cationic (alkyl)acrylamide derivative, polymer based on these derivates, and transfection system comprising said polymer” (OctoPlus Technologies B.V., priority 2003, dated 2005).

Experiment: Degradation of the monomer followed with RP-HPLC
Format: physicochemical
Conditions: 37 °C
Description: Degradation of the monomer was followed with RP-HPLC at 37 °C. The relative peak areas of the monomer and its degradation product HPMA as a function of time are depicted in figure 1(A) for pH 10, 1(B) for pH 7.4 and 1(C) for pH 5.0.

Compound: C=C(C)C(=O)NCC(C)OC(=O)OCCN(C)C (stereo not drawn) [HPMA-DMAE]
- half-life of the monomer (pH 5.0, RP-HPLC): 380 h
- half-life of the monomer (pH 7.4, RP-HPLC): 9.6 h
- half-life of the monomer (pH 10, RP-HPLC): 1.1 h
